Source: PubChem BioAssay AID624061 (Southern Research Specialized Biocontainment Screening …, 2012)

Test system: E. coli K5, bacterial growth
Assay: K5 capsule formation inhibitors tested for E. coli K5 growth effect in follow-up (AID 624061)
Settings: stronger effect = lower value

Compound CCOc1ccc(-c2cc(NC(=O)c3c(F)cccc3F)c(C(=O)O)s2)cc1 has a bacterial growth (at 100 µM) of 109% and a bacterial growth (growth, at 50 µM) of 106%.
